Where a name gives a salt, the structure may show the parent alone.
Columns and labels:
[1] = Bulk density determination (graduated cylinder, unshaken); type: physicochemical; details: end product
Experimental: Bulk Density Determination Bulk density was determined by means of a graduated cylinder (unshaken).

[2] = Particle size analysis (RETSCH screen analysis); type: physicochemical; details: for particle size distribution, fraction 0.1-0.2 mm / particle size distribution, fraction 0.1 mm / particle size distribution, fraction 0.2-0.5 mm / particle size distribution, fraction 0.5-0.8 mm / particle size distribution, fraction 0.8-1.0 mm / particle size distribution, fraction 1.0 mm: end product; for particle size distribution, fraction 0.1-0.2 mm: screen fraction 0.1-0.2 mm; for particle size distribution, fraction 0.1 mm: screen fraction 0.1 mm; for particle size distribution, fraction 0.2-0.5 mm: screen fraction 0.2-0.5 mm; for particle size distribution, fraction 0.5-0.8 mm: screen fraction 0.5-0.8 mm; for particle size distribution, fraction 0.8-1.0 mm: screen fraction 0.8-1.0 mm; for particle size distribution, fraction 1.0 mm: screen fraction 1.0 mm
From the text: A RETSCH screen analysis system was used.

[3] = cited from earlier work

bulk density [1] [g/mL] | particle size distribution, fraction 0.1-0.2 mm [2] [%] | particle size distribution, fraction 0.1 mm [2] [%] | particle size distribution, fraction 0.2-0.5 mm [2] [%] | particle size distribution, fraction 0.5-0.8 mm [2] [%] | particle size distribution, fraction 0.8-1.0 mm [2] [%] | particle size distribution, fraction 1.0 mm [2] [%] | particles <0.1 mm ([2]; maximum share of all particles) [wt. %] | particles >1 mm ([2]; maximum share of all particles) [wt. %] | SMILES | solubility in organic solvents ([3]; all organic solvents) | water solubility ([3]; water)
0.48 | 23.8 | 0.07 | 27.3 | 46.2 | 2.16 | 0.47 | – | – | CC(O)(P(=O)(O)O)P(=O)(O)O [Example 1, etidronate disodium] | – | –
0.51 | 0.07 | 0.0 | 19.7 | 54.9 | 15.6 | 9.71 | – | – | CC(O)(P(=O)(O)O)P(=O)(O)O [Example 2, etidronate disodium] | – | –
0.4 to 0.6 | – | – | – | – | – | – | ≤ 5 | ≤ 10 | CC(O)(P(=O)(O)O)P(=O)(O)O [etidronate disodium, disodium salt of hydroxyethane-1,1-diphosphonicacid] | nearly insoluble | high water solubility
